Data: BindingDB's records for doi:10.7270/Q2TX3CTT (Broad Institute, 2010)
pEC50: −log10 of the molar value. Where a name gives a salt, the structure may show the parent alone.

target: Glycogen synthase kinase-3 beta (Homo sapiens, UniProt P49841); experiment: GSK3beta kinase inhibitor potency, dose response, biochemical, luminescence, cell-free homogeneous, retest (AID 434954)
Sequence (P49841 whole entry): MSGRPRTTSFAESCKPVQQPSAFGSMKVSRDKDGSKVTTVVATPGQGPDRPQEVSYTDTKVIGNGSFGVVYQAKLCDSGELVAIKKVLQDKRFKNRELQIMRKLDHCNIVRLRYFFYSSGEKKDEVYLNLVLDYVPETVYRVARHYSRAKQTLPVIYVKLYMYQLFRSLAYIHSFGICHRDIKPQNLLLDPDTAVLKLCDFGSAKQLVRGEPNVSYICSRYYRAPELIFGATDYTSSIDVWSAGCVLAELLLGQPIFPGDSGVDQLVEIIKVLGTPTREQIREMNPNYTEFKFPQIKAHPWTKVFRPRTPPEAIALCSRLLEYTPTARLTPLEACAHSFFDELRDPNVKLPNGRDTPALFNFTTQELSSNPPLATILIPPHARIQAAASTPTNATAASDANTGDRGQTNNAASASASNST

Compared with `CC1CCc2c(sc3nn[nH]c(=O)c23)C1` (stereo unspecified) [SMR000124179], `CC1CCN(C(=O)CSc2nc(N)c3c4c(sc3n2)CN(C)CC4)CC1` [2-[(4-azanyl-7-methyl-6,8-dihydro-5H-pyrido[4,5]thieno[1,2-c]pyrimidin-2-yl)sulfanyl]-1-(4-methylpiperidin-1-yl)ethanone] is lower in pEC50: 4.41 for the first, < 3.52 for the second. The first is the more potent here.

Compared with `O=C(O)c1cc(-c2ccc(C=NN3C(=O)C4C5C=CC(CC5)C4C3=O)o2)ccc1Cl` (stereo unspecified) [SMR000274176], `NS(=O)(=O)c1ccc(-c2ccc(/C=C3\NC(=S)NC3=O)o2)cc1` is higher in pEC50: < 3.52 for the first, 4.33 for the second.

Compared with `Cc1ccc(C(=O)c2coc3ccc(OCC(=O)O)cc23)cc1` [2-[[3-[(4-methylphenyl)-oxomethyl]-5-benzofuranyl]oxy]acetic acid], `COc1ccc(OC)c(C(=O)c2coc3ccc(OC)cc23)c1` [MLS000108671] is lower in pEC50: 5.44 for the first, < 3.52 for the second. The first is the more potent here.

`Cc1cc(C)cc(NC(=O)NCC2CCN(Cc3cc(C)ccc3C)CC2)c1` [1-(3,5-dimethylphenyl)-3-[[1-[(2,5-dimethylphenyl)methyl]-4-piperidinyl]methyl]urea] and `Cc1cc(NC(=O)CCN2CCC(C)CC2)ccc1Br` [N-(4-bromo-3-methylphenyl)-3-(4-methyl-1-piperidinyl)propanamide;hydrochloride] cannot be ordered by pEC50: < 3.52 for the first, < 3.52 for the second.

Compared with `CN(C)CCCNc1nc(N)c([N+](=O)[O-])c(NCc2ccccc2)n1` [MLS001165050], `Nc1nc(NC2CCCCC2)nc(NCCO)c1[N+](=O)[O-]` [2-[[6-amino-2-(cyclohexylamino)-5-nitro-4-pyrimidinyl]amino]ethanol] is 1.24 log units higher in pEC50: 4.42 for the first, 5.66 for the second.

First: CCCn1nc(NC(=O)c2cccs2)c2cc3ccc(C)cc3nc21 [N-(7-methyl-1-propylpyrazolo[3,4-b]quinolin-3-yl)thiophene-2-carboxamide]
Second: COCCn1c(SCC(=O)Nc2ccc(Cl)cn2)nc2ccccc21 [N-(5-chloropyridin-2-yl)-2-[1-(2-methoxyethyl)benzimidazol-2-yl]sulfanylacetamide]
The pEC50 of the first is lower: < 3.52 for the first, 5.42 for the second. The second is the more potent here.

`CCOC(=O)C1(Cc2cccc(F)c2)CCN(Cc2cn(CC)nc2C)CC1` [1-[(1-ethyl-3-methyl-4-pyrazolyl)methyl]-4-[(3-fluorophenyl)methyl]-4-piperidinecarboxylic acid ethyl ester] and `CCOC(=O)c1c(C)[nH]c(C)c1S(=O)(=O)N(C)CC(=O)Nc1cccc(F)c1` [ethyl 4-[[2-(3-fluoroanilino)-2-oxoethyl]-methylsulfamoyl]-2,5-dimethyl-1H-pyrrole-3-carboxylate] cannot be ordered by pEC50: < 3.52 for the first, < 3.52 for the second.

`CC1(C)CC(=O)C=C(Nc2cccc(C(F)(F)F)c2)C1` [5,5-dimethyl-3-[[3-(trifluoromethyl)phenyl]amino]cyclohex-2-en-1-one] and `Cc1ccc(NC2=CC(=O)CC(C)(C)C2)cc1C` [3-(3,4-dimethylanilino)-5,5-dimethyl-1-cyclohex-2-enone] cannot be ordered by pEC50: < 3.52 for the first, < 3.52 for the second.

`O=C(NCc1ccncc1)C1CCC(=O)N(CCc2ccc(Cl)cc2)C1` (stereo unspecified) [MLS001100847] and `O=C(O)C1C2C=CC(O2)C1C(=O)NCc1ccc(Cl)cc1` (stereo unspecified) [3-{[(4-chlorobenzyl)amino]carbonyl}-7-oxabicyclo[2.2.1]hept-5-ene-2-carboxylic acid] cannot be ordered by pEC50: < 3.52 for the first, < 3.52 for the second.

`O=C(Nc1ccccc1)Nc1ccccn1` [1-phenyl-3-pyridin-2-ylurea] and `O=C(Nc1ccccc1)Nc1ccncc1` cannot be ordered by pEC50: < 3.52 for the first, < 3.52 for the second.

Compared with `c1csc(C2=Nn3c(nnc3-c3ccncc3)SC2)c1`, `c1ccc(CNc2ncnc3scc(-c4cccs4)c23)nc1` [N-(pyridin-2-ylmethyl)-5-thiophen-2-yl-thieno[2,3-d]pyrimidin-4-amine] is lower in pEC50: 6.13 for the first, < 3.52 for the second. The first is the more potent here.

Compared with `CN1/C(=C/C=C(/C#N)C(N)=O)C(C)(C)c2ccccc21` [(Z,4E)-2-cyano-4-(1,3,3-trimethyl-2-indolylidene)-2-butenamide], `O=C1Nc2ccccc2C1=Cc1cnc[nH]1` [SMR000180717] is 0.71 log units higher in pEC50: 4.81 for the first, 5.52 for the second.

`Cn1c(SCC(=O)Nc2ccccc2)nc2ccccc2c1=O` [2-(3-Methyl-4-oxo-3,4-dihydro-quinazolin-2-ylsulfanyl)-N-phenyl-acetamide] and `CCn1c(=O)c(C(=O)NNC(=O)c2ccccc2)c(O)c2ccccc21` cannot be ordered by pEC50: < 3.52 for the first, < 3.52 for the second.

Going from `CCOC(=O)c1cnc2ccc(OC)cc2c1Nc1ccc(N2CCN(C)CC2)cc1` [6-methoxy-4-[4-(4-methyl-1-piperazinyl)anilino]-3-quinolinecarboxylic acid ethyl ester] to `CCN1CCN(c2cc(C)c3cc(NC(=O)CCC(=O)Nc4ccc(OC)cc4OC)ccc3n2)CC1` [N'-(2,4-dimethoxyphenyl)-N-[2-(4-ethyl-1-piperazinyl)-4-methyl-6-quinolinyl]butanediamide], the pEC50 falls from 5.28 to < 3.52. The first is the more potent here.

Compared with `Cn1c(SCC(=O)Nc2ccc(Br)cn2)nnc1C1CC1` [N-(5-bromopyridin-2-yl)-2-[(5-cyclopropyl-4-methyl-1,2,4-triazol-3-yl)sulfanyl]acetamide], `Cc1ccnc(NC(=O)Cn2cc([N+](=O)[O-])cn2)c1` [SMR000307337] is lower in pEC50: 4.68 for the first, < 3.52 for the second. The first is the more potent here.

`COc1ccc(-c2csc(N3CCOCC3)n2)cc1OC` and `Cc1nc(N2CCOCC2)nc(N2CCCCC2C)c1[N+](=O)[O-]` (stereo unspecified) [MLS001012395] cannot be ordered by pEC50: < 3.52 for the first, < 3.52 for the second.

Compared with `OCCCNc1nccc(-c2cc(Nc3cccc(Cl)c3)ncn2)n1` [3-[[4-[6-[(3-chlorophenyl)amino]pyrimidin-4-yl]pyrimidin-2-yl]amino]propan-1-ol], `CC(C)OCCCN1CN(S(=O)(=O)c2cccc(Cl)c2)c2nc3ccccc3nc21` [1-(3-Chloro-benzenesulfonyl)-3-(3-isopropoxy-propyl)-2,3-dihydro-1H-imidazo[4,5-b]quinoxaline] is lower in pEC50: 7.11 for the first, < 3.52 for the second. The first is the more potent here.

Compared with `CN(C)Cc1c(O)ccc2c1O/C(=C\C=C\c1ccccc1)C2=O` [7-Dimethylaminomethyl-6-hydroxy-2-[(E)-3-phenyl-prop-2-en-(Z)-ylidene]-benzofuran-3-one], `CC[n+]1c(/C=C/N(C)c2ccccc2)oc2ccc(Cl)cc21` [SMR000184374] is lower in pEC50: 4.50 for the first, < 3.52 for the second. The first is the more potent here.

First: OC(COc1ccc(OCC(O)CN2CCN(Cc3ccccc3)CC2)cc1)CN1CCN(Cc2ccccc2)CC1 (stereo unspecified) [SMR000473226]
Second: O=C(CN(Cc1ccccc1)C(=O)CCC(=O)Nc1ccccn1)NCc1ccc(F)cc1
The pEC50 of the first is lower: < 3.52 for the first, 4.23 for the second.

First: COc1ccc2nc(NC(=O)C3CCCO3)sc2c1 (stereo unspecified) [N-(6-methoxy-1,3-benzothiazol-2-yl)-2-oxolanecarboxamide]
Second: O=C(Nc1ncc(Cc2ccccc2)s1)C1CCCO1 (stereo unspecified) [MLS000100685]
The pEC50 of the first is lower: < 3.52 for the first, 4.75 for the second.

`Cc1ccc(S(=O)(=O)N2CCN(CC(=O)NN=Cc3ccco3)CC2)cc1` [MLS000590873] and `O=S(=O)(c1ccc(Br)cc1)N1CCN(c2cc(-c3ccccc3)nc3ncnn23)CC1` [7-[4-(4-bromophenyl)sulfonyl-1-piperazinyl]-5-phenyl-[1,2,4]triazolo[1,5-a]pyrimidine] cannot be ordered by pEC50: < 3.52 for the first, < 3.52 for the second.

First: Cc1cc(-c2n[nH]c3c2C(c2cccc(O)c2)C(C#N)C(=N)O3)c(C)s1 (stereo unspecified) [SMR000136653]
Second: CCN(CC)Cc1c(O)ccc2c(=O)c(-c3ccc4c(c3)OCCO4)coc12 [MLS000552107]
The pEC50 of the first is higher: 4.59 for the first, < 3.52 for the second. The first is the more potent here.

`COC1=C/C(=C/c2c(N)n3cc(C)sc3nc2=O)C=CC1=O` and `CNC(=O)c1cc2cccc(OC)c2oc1=O` cannot be ordered by pEC50: < 3.52 for the first, < 3.52 for the second.

Compared with `c1ccc2c(c1)OCC(CNCC1COc3ccccc3O1)O2` (stereo unspecified) [1-(2,3-dihydro-1,4-benzodioxin-3-yl)-N-(2,3-dihydro-1,4-benzodioxin-3-ylmethyl)methanamine], `O=NCc1cn(-c2ccccc2)nc1-c1ccccc1` [1,3-diphenyl-4-pyrazolecarboxaldehyde oxime] is higher in pEC50: < 3.52 for the first, 4.59 for the second.

`COc1ccc(C(=O)c2coc3ccc(O)c(CN4CCCCC4)c23)cc1` [[5-hydroxy-4-(piperidin-1-ylmethyl)-1-benzofuran-3-yl]-(4-methoxyphenyl)methanone] and `Cc1ccc(-n2nc3c(N4CCC(C(=O)N5CCCCCC5)CC4)nnc(C)c3c2C)cc1` [MLS001028811] cannot be ordered by pEC50: < 3.52 for the first, < 3.52 for the second.

`Cc1ccnc(NC(=O)Cn2ccc([N+](=O)[O-])n2)c1` [N-(4-methylpyridin-2-yl)-2-(3-nitropyrazol-1-yl)ethanamide] and `O=C(Nc1ncc([N+](=O)[O-])s1)c1ccco1` [N-(5-nitro-2-thiazolyl)-2-furancarboxamide] cannot be ordered by pEC50: < 3.52 for the first, < 3.52 for the second.

`Nc1nc(Cl)nc2c1ncn2C1OC(CO)C(O)C1O` (stereo unspecified) and `OCCNc1nc2nonc2nc1NCCO` cannot be ordered by pEC50: < 3.52 for the first, < 3.52 for the second.

Going from `CCOc1ccc2nc(NC(=O)CSc3nc(O)c(C#N)c(-c4ccccc4)n3)sc2c1` to `COc1ccc(CN(CC(=O)NCc2ccccc2)C(=O)CCC(=O)Nc2nccs2)cc1`, the pEC50 falls from 4.47 to < 3.52.

`CCCc1cc(=O)[nH]c(SCCOc2ccc(OCC)cc2)n1` and `CCOc1ccc(CN=Nc2ccccn2)cc1OC` [MLS001005584] cannot be ordered by pEC50: < 3.52 for the first, < 3.52 for the second.

First: Clc1ccc2[nH]c3c(c2c1)CCc1c[nH]nc1-3 [MLS000108710]
Second: CN1CCc2[nH]c3ccc(C(=O)NN)cc3c2C1 [SMR000131639]
The pEC50 of the first is higher: 4.60 for the first, < 3.52 for the second. The first is the more potent here.

`O=C(O)c1cccnc1-c1ncccc1C(=O)O` and `COc1ccc(CNC(=O)CN(Cc2ccco2)C(=O)CCC(=O)Nc2ccccn2)cc1` [SMR000600509] cannot be ordered by pEC50: < 3.52 for the first, < 3.52 for the second.

`CN(C)C(CNC(=O)c1ccc2ccccc2c1)c1ccco1` (stereo unspecified) [SMR000377096] and `C[C@H](NC(=O)[C@@H]1CSC2c3ccccc3C(=O)N21)C(=O)NCc1c(F)cccc1Cl` (stereo partly drawn) [(3R)-N-[(2S)-1-[(2-chloro-6-fluorophenyl)methylamino]-1-oxopropan-2-yl]-5-oxo-3,9b-dihydro-2H-thiazolo[2,3-a]isoindole-3-carboxamide] cannot be ordered by pEC50: < 3.52 for the first, < 3.52 for the second.

`Cc1ccc(CSc2ccc3nnc(-c4ccccn4)n3n2)cc1` and `CCOC(=O)CSc1ccc2nnc(CCNS(=O)(=O)c3ccccc3)n2n1` [ethyl [(3-{2-[(phenylsulfonyl)amino]ethyl}[1,2,4]triazolo[4,3-b]pyridazin-6-yl)thio]acetate] cannot be ordered by pEC50: < 3.52 for the first, < 3.52 for the second.

`Cc1ccc([N+](=O)[O-])cc1/N=C1\C(=O)Nc2ccccc21` and `O=C(C1CCCO1)N1N=C(c2ccc(Br)cc2)CC1c1ccco1` (stereo unspecified) [MLS000699386] cannot be ordered by pEC50: < 3.52 for the first, < 3.52 for the second.

Going from `CCOC(=O)C(CC)Sc1ncnc2nc[nH]c12` (stereo unspecified) to `CN(c1ncnc(N)c1[N+](=O)[O-])C1CCS(=O)(=O)C1` (stereo unspecified) [SMR000347974], the pEC50 rises from < 3.52 to 4.55.

With `Nc1nc(N)nc(-c2cc(Cl)ccc2Cl)n1` [SMR000471621] the pEC50 was < 3.52.
